One data set concerns A375 cells. As to the kind of experiment: A375 cell proliferation inhibition test. The following applies: Homo sapiens, A-375, 72 h. The format is cell-based. On the procedure: A375 cells (ATCC, CRL-1619) were cultured in DMEM complete medium (+10% FBS) in a CO2 incubator at 37°C for 48 h. The cells were trypsinised and counted, and then the density was adjusted to 1.67 × 10^4 cells/mL. 90 µL (1500 cells) of cells were inoculated into each well of a 96-well transparent bottom plate, and the plate was transferred to a CO2 incubator and the cells were cultured at 37°C overnight. After the cells were incubated overnight, 10 µL of the diluted compound (final concentration starting from 10 µM, 3-fold dilution, 11 concentrations) was added to each well using a multi-channel pipette. The […] control was a serum-free medium containing DMSO. After mixing evenly, the cells were placed in a CO2 incubator at 37°C for 72 h. After the incubation, the CellCounting-Lite®2.0 kit detection solution (Vazyme, DD1101-03) was taken out and returned to room temperature. 100 µL of CellCounting-Lite2.0 detection solution was added to each well, the plate was sealed with a sealing film, and the plate was placed on a shaker for shaking for 15 min (the whole process should be kept away from light). The Luminescence module of the microplate reader (BMG LRBTECH) was used to detect the fluorescence signal value LUM of each well. The formula Inhibition rate% = ((LUM Solvent−LUM Compound)/(LUM Solvent))∗100% [formula] was used to calculate the inhibition rate of the compound. The Graphpad software log(inhibitor) vs. response -- Variable slope (four parameters) equation was used to perform fitting analysis and calculate the IC50value of the sample. The ordinate of the data is the percentage of inhibition rate, and the abscissa is the logarithm of the sample concentration (Log10).

A short description of data set [1]: Pharmacokinetic test in mice. The format is in vivo, ICR mice. The conditions noted are these: mouse, plasma; for Vd: read-out: Vdss. On the procedure: 3.1 Experimental animals: Male ICR mice, 20-25 g, 6 mice/compound, purchased from Chengdu Dossy Experimental Animals Co., Ltd.
3.2 Experimental design: On the day of the experiment, the ICR mice were randomly grouped according to their body weights. The animals were fasted with water available for 12-14 h one day before the administration, and were fed 4 h after the administration. Table 3.1 Administration information
vehicle for intravenous administration: 5% DMA + 5% Solutol + 90% Saline; vehicle for intragastric administration: 0.5% MC
Before and after administration, 0.06 mL of blood was taken from the orbit under isoflurane anaesthesia and placed in an EDTAK2 centrifuge tube. The tube was centrifuged at 5000 rpm at 4°C for 10 min, and plasma was collected. The blood sampling time points for both the intravenous administration group and intragastric administration group were 0 min, 5 min, 15 min, 30 min, 1 h, 2 h, 4 h, 7 h, 24 h, and 48 h. Before analysis and detection, all samples were stored at -80°C, and the samples were quantitatively analysed by LC-MS/MS. Table 3.2 Pharmacokinetic parameters of test compounds in plasma of mice

Data set [2] in a line: Pharmacokinetic test in mice. The format is in vivo, ICR mice. The conditions noted are these: i.g. (10 mg/kg), relative to Control compound 1.
Another data set concerns the target T1, BRAFV600E (Homo sapiens, UniProt P15056, V600E).
T1 construct: purchased ABCAM ab204154
The experiment in a line: BRAFV600E enzyme activity test (ADP-Glo, MEK1K97R substrate). The format is biochemical. The conditions noted are these: Inhibitory activities of compounds on BRAFV600E. On the procedure: BRAFV600E (ABCAM, ab204154) and MEK1K97R (USBio, M2865-06J) proteins were diluted at an appropriate dilution factor using 1×Assay buffer (PH = 7.4 Tris-HCl buffer, supplemented with 10 mM MgCl2) such that the final concentration of BRAFV600E was 10 ng/µL and the final concentration of substrate MEK1K97R was 1 µM. 1 µL of BRAFV600E, 1 µL of compound serial dilution (final concentration starting from 2 µM, 5-fold dilution, 8 concentrations), and 6 µL of Assay buffer were pipetted to a 384-well reaction plate with a capacity of 20 µL. The plate was pre-incubated in a constant temperature incubator at 37°C for 30 min. 1 µL of 200 µM ATP and 1 µM MEK1 K97R were added to the reaction wells corresponding to the compound incubation, and mixed evenly by shaking, and preincubation was performed in a constant temperature incubator at 37°C for 60 min for enzymatic reaction. After the reaction was completed, 5 µL of the above reaction product was pipetted to another 384-well plate, and 5 µL of formulated ADP-Glo™ Reagent (Promega, V9101) was added and mixed evenly by pipetting, and then the plate was placed at room temperature for 40 min. 10 µL Kinase Detection Reagent was added to the 384-well plate and incubated at room temperature for 40 min. Finally, a microplate reader (BMG LRBTECH) was used and Luminescence module was selected to detect the LUM fluorescence value of each well (the gain value was fixed at 3600), and the formula Inhibition rate% = (1−(LUM Compound−LUM Background)/(LUM Solvent−LUM Background))∗100% [formula] was used to calculate the inhibition rate of the compound on BRAFV600E. The Graphpad software log(inhibitor) vs. response -- Variable slope (four parameters) equation was used to perform fitting analysis and calculate the IC50value of the sample.

Where [3] appears, read: Inhibitory activities of compounds on A375 cells, read-out: IC50/nM.
[4] abbreviates: A375 cells, values in text, read-out: IC50.

Read-outs that look alike come from different tables or passages of the source.

T1 sequence (P15056 416-766 V600E limits assumed): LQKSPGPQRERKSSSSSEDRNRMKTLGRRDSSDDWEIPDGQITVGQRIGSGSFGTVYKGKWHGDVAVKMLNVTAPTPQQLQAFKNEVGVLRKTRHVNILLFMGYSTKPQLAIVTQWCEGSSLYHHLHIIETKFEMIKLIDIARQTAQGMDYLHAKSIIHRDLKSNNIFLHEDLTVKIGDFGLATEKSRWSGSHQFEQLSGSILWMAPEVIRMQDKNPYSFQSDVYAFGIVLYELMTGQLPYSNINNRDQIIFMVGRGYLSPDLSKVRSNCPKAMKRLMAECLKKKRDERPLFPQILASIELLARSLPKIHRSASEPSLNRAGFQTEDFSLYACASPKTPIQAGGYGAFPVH

`N#Cc1c(NS(=O)(=O)N2CCC(=CF)C2)ccc(F)c1Oc1ccc2ncn(CC(F)F)c(=O)c2c1` (single isomer, unassigned) [Compound 15]: the IC50 with A375 cells (setting [3]) was not above 10 nM.

As for `C=C1CC(Cn2cnc3ccc(Oc4c(F)ccc(NS(=O)(=O)N5CC6(CCC6)C5)c4C#N)cc3c2=O)C1` [Compound 9], in the data set with A375 cells (setting [3]), the IC50 was 10 to 50 nM.

For `C=C1CN(S(=O)(=O)Nc2ccc(F)c(Oc3ccc4ncn(CC(F)F)c(=O)c4c3)c2C#N)CC1F` (stereo not shown) [Compound 21], in the data set with A375 cells (setting [3]), the IC50 is not above 10 nM.

In the case of `N#Cc1c(NS(=O)(=O)N2CC(=CC(F)F)C2)ccc(F)c1Oc1ccc2ncn(CC(F)F)c(=O)c2c1` [Compound 26], in the data set on A375 cells (setting [3]), the IC50 was in the range of 10 to 50 nM.

Take `CC(C)=C1CN(S(=O)(=O)Nc2ccc(F)c(Oc3ccc4ncn(CC(F)F)c(=O)c4c3)c2C#N)C1` [Compound 4]: the IC50 with A375 cells (setting [3]) was 10 to 50 nM.

Turning to `CC=C1CN(S(=O)(=O)Nc2ccc(F)c(Oc3ccc4ncn(C)c(=O)c4c3)c2C#N)C1` [Compound 27], the IC50 with A375 cells (setting [3]) was not above 10 nM.

In the case of `N#Cc1c(NS(=O)(=O)N2CC(=CC(F)(F)F)C2)ccc(F)c1Oc1ccc2ncn(CC(F)F)c(=O)c2c1` [Compound 25], the IC50 in the data set on A375 cells (setting [3]) was in the range of 10 to 50 nM.

For the compound `Cc1nnc2c3cc(Oc4c(F)ccc(NS(=O)(=O)N5CC6(CCC6)C5)c4C#N)ccc3ncn12` [Compound 1], in the data set with A375 cells (setting [3]), the IC50 was not above 10 nM.

For `CC=C1CN(S(=O)(=O)Nc2ccc(F)c(Oc3ccc4c(c3)C3=NCCN3C=N4)c2C#N)C1` [Compound 22], the IC50 in the data set with A375 cells (setting [3]) lay within 10 to 50 nM.

For the compound `CN(C1CC(=C(F)F)C1)S(=O)(=O)Nc1ccc(F)c(Oc2ccc3ncn(CC(F)F)c(=O)c3c2)c1C#N` (stereo not shown) [Compound 12], in the data set with A375 cells (setting [3]), the IC50 lay in the range of 10 to 50 nM.

For `C=C1CCN(S(=O)(=O)Nc2ccc(F)c(Oc3ccc4ncn(CC(F)F)c(=O)c4c3)c2C#N)C1` [Compound 6], the IC50 in the data set with A375 cells (setting [3]) was not above 10 nM. Further, in data set [1] (in vivo, iv, i.v. (2.5 mg/kg)), the AUC(0-t) (as a rule, the area under the concentration-time curve up to a stated or last time point) was determined as 148 µg·h/mL; the clearance (in general, the rate of elimination divided by the concentration) turned out to be 0.282 mL/min/kg; the half-life (commonly the time in which the quantity being followed falls by half) is 6.77 h; the Vd worked out at 0.118 L/kg. Moreover, in data set [1] (in vivo, po, i.g. (10 mg/kg)), the exposure AUC(0-t) turned out to be 373 µg·h/mL and the half-life is 4.47 h. Besides, the “Fold change in brain-blood ratio relative to control compound” value in data set [2] stood at 24.9.

As to `N#Cc1c(NS(=O)(=O)N2CC3(CCC3)C2)ccc(F)c1Oc1ccc2ncc(N3CCOCC3)nc2c1` [Compound 2], the IC50 in the data set with A375 cells (setting [3]) lay in the range of 10 to 50 nM.

Regarding `N#Cc1c(NS(=O)(=O)N2CC(=CF)C2)ccc(F)c1Oc1ccc2ncn(CC(F)F)c(=O)c2c1` [Compound 11], in the data set on A375 cells (setting [3]), the IC50 is not above 10 nM. In data set [1] (iv, i.v. (2.5 mg/kg)), the AUC(0-t) is 245 µg·h/mL, the clearance was determined as 0.163 mL/min/kg, the half-life is 11.1 h and the Vd turned out to be 0.123 L/kg. In addition, in data set [1] (po, i.g. (10 mg/kg)), the bioavailability (as a rule, the share of a dose that reaches the circulation, judged against a reference dose that is usually intravenous) was 98.1%; the area under the curve AUC(0-t) was 962 µg·h/mL; the half-life is 8.81 h. Besides, in data set [2], the “Fold change in brain-blood ratio relative to control compound” value is listed as 6.1.

Take `CC(F)=C1CN(S(=O)(=O)Nc2ccc(F)c(Oc3ccc4ncn(CC(F)F)c(=O)c4c3)c2C#N)C1` [Compound 24]: the IC50 on BRAFV600E is not above 10 nM. Further, in the data set on A375 cells (setting [4]), the IC50 was 2.16 nM. Further, the IC50 with A375 cells (setting [3]) was not above 10 nM. In data set [1] (iv, i.v. (2.5 mg/kg)), the exposure AUC(0-t) worked out at 91.8 µg·h/mL, the clearance worked out at 0.462 mL/min/kg, the half-life is 8.1 h and the Vd turned out to be 0.237 L/kg. In addition, in data set [1] (po, i.g. (10 mg/kg)), the bioavailability was more than 98%, the AUC(0-t) was found to be 492 µg·h/mL and the half-life is 9.83 h. The “Fold change in brain-blood ratio relative to control compound” value in data set [2] came out at 8.1.

With `C=C1CN(S(=O)(=O)Nc2ccc(F)c(Oc3ccc4ncn(CCF)c(=O)c4c3)c2C#N)C1` [Compound 5], in the data set with A375 cells (setting [3]), the IC50 was not above 10 nM.

With `C=C1CN(S(=O)(=O)Nc2ccc(F)c(Oc3ccc4ncc(N5CCOCC5)nc4c3)c2C#N)C1` [Compound 23], the IC50 in the data set with A375 cells (setting [3]) was not above 10 nM.

`CC=C1CN(S(=O)(=O)Nc2ccc(F)c(Oc3ccc4ncn(CCF)c(=O)c4c3)c2C#N)C1` [Compound 14] showed an IC50 against BRAFV600E not above 10 nM. For the same compound, the IC50 with A375 cells (setting [4]) was found to be 1.44 nM. Also, the IC50 in the data set on A375 cells (setting [3]) is not above 10 nM. For the same compound, in data set [1] (iv, i.v. (2.5 mg/kg)), the exposure AUC(0-t) was 268 µg·h/mL, the clearance turned out to be 0.154 mL/min/kg, the half-life was 9.27 h and the Vd came to 0.098 L/kg. In data set [1] (po, i.g. (10 mg/kg)), this compound gave a bioavailability of 85.1%, an AUC(0-t) of 912 µg·h/mL and a half-life of 9 h. The “Fold change in brain-blood ratio relative to control compound” value in data set [2] was 3.5.

The values are drawn from patent EP4813985A1, “PREPARATION OF QUINAZOLINONE DERIVATIVE AS KINASE INHIBITOR, AND USE THEREOF” (Xizang Haisco Pharmaceutical Co., Ltd., priority 2023, dated 2025).
